Experimental data published in US20060135624A1, “Natural compound useful for treating diabetes, its preparation and use” (JINGYU LIANG ET AL, priority 2002, published 2006).

Columns and labels:
[1] = test system: mouse hyperglycemia induced by alloxan; test: Time-effect relation of Sequoyitol to mouse hyperglycemia induced by alloxan; assay type: in vivo, Kunming mice; conditions: for blood-sugar level decreased compared to the control group: Sequoyitol 50 mg/kg p.o. 7 days
Description: 1. Experimental Methods^[1,2] • Alloxan was administrated to each of 30 mice by caudal vein injection with a dose of 65 mg/kg, and the mice were modeled according to the method of documents, divided into 3 groups according to blood-sugar values, […] according to […] of body weight, and the modeling group was administrated with the same volum of distilled water, separately. These administrations were conducted for continuous 7 days, and the mice were fasted for 2 hours before the last administration, and their blood-sugar levels were detected by glucose oxidase method at 1 2, 3 and 5 hours after the last administration.

[2] = test system: normal mice; test: Test of acute toxicity by oral administration; assay type: in vivo; conditions: 18.95 g/kg and 9.47 g/kg drenched one time; executed after 7 days
From the text: 1) Experimental Method • 20 Normal mice (half male and half female) were divided into two groups (each group had 10 mice), and drenched with 18.95 g/kg and 9.47 g/kg one time, wherein the higher dose reached the maximum concentration and the maximum administration volume. The animals' responses were observed. The mice were executed after 7 days, and their organs were macroscopically observed.

[3] = test system: normal mice; test: Test of acute toxicity by intravenous administration; assay type: in vivo; conditions: 5.04 g/kg intravenous injection
From the text: 1) Experimental Method • 20 Normal mice (half male and half female) were administrated with 5.04 g/kg Sequoyitol (which reached the maximum concentration and the maximum intravenous administration volume) by intravenous injection. The animals' responses were observed. The mice were executed after 14 days, and their organs were macroscopically observed.

[4] = test system: mouse hyperglycemia induced by glucose; test: Effect of Sequoyitol on mouse hyperglycemia induced by glucose; assay type: in vivo, Kunming mice
Description: 1. Experimental Method^[4] • 72 Mice were randomly divided into 6 groups, […] according to 0.1 ml/10 g of body weight, respectively, and the normal group and modeling group were administrated with the same volum of distilled water. These administrations were conducted for continuous 7 days. The normal group was administrated with the same volum of physiological saline by injection, while other groups were administrated with […] of glucose by intra-abdominal injection. After 30, 60, 90 and 120 minutes of administration, bloods were collected from venous plexus behind fossa orbitalis, the serums were separated, and the blood-sugar levels were separately detected by glucose oxidase method.

[5] = test system: normal mice; test: General pharmacology in mice; conditions: mouse, in vivo
From the text: • 1. Guidelines for Studying New Drugs (Pharmacy, Pharmacology, Toxicology), Bureau of Drug Administration, the Ministry of Health of the People's Republic of China • 2. Chen Q I, Methodology for Studying Pharmacology of Chinese Medicine, People' Medical Publishing House, 1st Edition, 1993, 118-119 III. Studies on General Pharmacology • The effects of Sequoyitol on general physical signs and spontaneous movement of normal mice, on Pentobarbital hours of sleep of mice, and on respiratory movement, blood pressure, cardiac rhythm and electrocardiogram of rats were observed.

[6] = test system: blood-sugar level of normal mice; test: Effect of Sequoyitol on blood-sugar level of normal mice; assay type: in vivo, Kunming mice; conditions: Sequoyitol groups (25, 50, 100 mg/kg) oral 7 days
Description: 1. Experimental Method^[3] • 60 Mice were randomly divided into 5 groups, […] according to 0.1 ml/10 g of body weight, respectively, and the normal group was administrated with the same volum of the same volum of distilled water. These administrations were conducted for continuous 7 days. The blood-sugar levels were detected by glucose oxidase method.

[7] = test system: rat hyperglycemia induced by alloxan; test: Effect of Sequoyitol on rat hyperglycemia induced by alloxan; assay type: in vivo, SD rats
Description: 1. Experimental Methods^[5,6] • 5 Rats were randomly selected as normal group, the other 55 rats were fasted for 14-16 hours, administrated with 30 mg/kg of Pentobarbital by intra-abdominal injection. After paralyzed, the rats were administrated with 48 mg/kg of alloxan by vena femoralis injection, modeled according to methods of documents, and divided into 5 groups according to blood-sugar level, wherein each group had 11 rats, and 4 groups were orally administrated with 25, 50 and 100 mg/kg of Sequoyitol and 75 mg/kg of phenformine according to 1 ml/100 g of body weight, respectively, and the normal group and modeling group were administrated with the same volum of distilled water. These administrations were conducted for continuous 18 days. The fasting blood-sugar levels of the rats were separately measured at 6th and 12th day after the administration. At the 18th day, blood was collected from arteria femoralis, and the blood sugar level, insulin level, cholesterol content, triglyceride content, malonaldehyde content, and hepatocuprein activity of serum were measured; liver tissue was homogenated, and the malonaldehyde content, and hepatocuprein activity of liver tissue were measured; and pancreatic gland was soaked in 10% formalin, embedded with paraffin, sliced, and dyed with HE.

[8] = 50 and 100 mg/kg Sequoyitol groups, oral 18 days
[9] = Sequoyitol 50 mg/kg oral 18 days
[10] = Sequoyitol 100 mg/kg oral 18 days

COC1C(O)C(O)C(O)C(O)C1O (stereo not shown) [Sequoyitol, 5-O-methyl-myo-inositol]
effect of alleviating hyperglycemia compared with phenformine ([1]; 60 mg/kg Sequoyitol vs 75 mg/kg phenformine): higher than that of 75 mg/kg phenformine
blood-sugar level decreased compared to the control group ([1]; 1 hour after last administration): 100.0 mg/dL
blood-sugar level decreased compared to the control group ([1]; 2 hours after last administration): 140.7 mg/dL
blood-sugar level decreased compared to the control group ([1]; 3 hours after last administration): 193.9 mg/dL
blood-sugar level decreased compared to the control group ([1]; 5 hours after last administration): 174.6 mg/dL
main organs under macroscopic observation [2]: free of abnormality
main organs under macroscopic observation ([3]; executed after 14 days): free of abnormality
animals' responses after intravenous injection ([3]; observed 14 days): better health status, gloss fur, bright eyes, and good rang of motion
effect for alleviating hyperglycemia compared with phenformine ([4]; 100 mg/kg Sequoyitol vs 75 mg/kg phenformine): equivalent to that of 75 mg/kg phenformine
glucose-induced hyperglycemia compared to the control group ([4]; 25 and 50 mg/kg Sequoyitol groups, oral 7 days, 30, 60, 90 minutes after i.p. glucose): significantly alleviated
glucose-induced hyperglycemia compared to the control group ([4]; Sequoyitol 100 mg/kg oral 7 days, 30, 60, 90, 120 minutes after i.p. glucose): highly significantly alleviated
blood-sugar level decreased compared to the control group ([4]; Sequoyitol 100 mg/kg oral 7 days, 90 minutes after i.p. glucose): 24.5 mg/dL
effect on Pentobarbital hours of sleep of mice [5]: did not significantly affect
effect on spontaneous movement of mice [5]: did not significantly affect
blood-sugar level compared with the normal group [6]: not significantly different
hyalinization of interstitial small vessels (histopathologic examination) [7, 8]: alleviated
inflammatory cell infiltration (histopathologic examination) [7, 8]: reduced
body weight of diabetes rats compared to the control group ([7]; 50 and 100 mg/kg Sequoyitol groups, oral, since the 15th day (increased at the 13th day)): significantly increased
serum insulin level increased compared to the control group ([7]; Sequoyitol 25 mg/kg oral 18 days): 1.01 μlU/ml
alloxan-induced hyperglycemia compared to the control group ([7]; Sequoyitol 25 mg/kg oral, 12th day): significantly alleviated
blood-sugar level decreased compared to the control group ([7]; Sequoyitol 25 mg/kg oral, 18th day): 194.4 mg/dL
body weight of diabetes rats compared to the control group ([7]; Sequoyitol 25 mg/kg oral, at the 17th day (increased at the 15th day)): significantly increased
content of cholesterol in serum decreased compared to the control group [7, 9]: 22.2 mg/dL
content of triglyceride in serum decreased compared to the control group [7, 9]: 15.7 mg/dL
serum insulin level increased compared to the control group [7, 9]: 1.45 μl U/ml
blood-sugar level decreased compared to the control group ([7]; Sequoyitol 50 mg/kg oral, 6th day): 129.1 mg/dL
blood-sugar level decreased compared to the control group ([7]; Sequoyitol 50 mg/kg oral, 12th day): 200.7 mg/dL
blood-sugar level decreased compared to the control group ([7]; Sequoyitol 50 mg/kg oral, 18th day): 223.1 mg/dL
activity of hepatocuprein in liver tissue increased compared to the control group [7, 10]: 18.3 NU/mg prot
activity of hepatocuprein in serum increased compared to the control group [7, 10]: 55.0 NU/ml
content of malonaldehyde in liver tissue decreased compared to the control group [7, 10]: 4.29 nmol/mg prot
content of malonaldehyde in serum decreased compared to the control group [7, 10]: 4.13 nmol/dL
serum insulin level increased compared to the control group [7, 10]: 3.36 μlU/ml
blood-sugar level decreased compared to the control group ([7]; Sequoyitol 100 mg/kg oral, 6th day): 120 mg/dL
blood-sugar level decreased compared to the control group ([7]; Sequoyitol 100 mg/kg oral, 12th day): 218.2 mg/dL
blood-sugar level decreased compared to the control group ([7]; Sequoyitol 100 mg/kg oral, 18th day): 240.3 mg/dL
number of pancreatic islands and number of cells in pancreatic islands (histopathologic examination) compared to the model group ([7]; Sequoyitol groups (25, 50, 100 mg/kg oral 18 days)): increased significantly
